In ChEMBL document CHEMBL1129764, “Synthesis of N-kojic-amino acid and N-kojic-amino acid-kojiate and their tyrosinase inhibitory activity” (Bioorg Med Chem Lett, 1996):

Molecular target: T1, Tyrosinase (Homo sapiens, UniProt P14679)
T1 sequence (P14679 whole entry): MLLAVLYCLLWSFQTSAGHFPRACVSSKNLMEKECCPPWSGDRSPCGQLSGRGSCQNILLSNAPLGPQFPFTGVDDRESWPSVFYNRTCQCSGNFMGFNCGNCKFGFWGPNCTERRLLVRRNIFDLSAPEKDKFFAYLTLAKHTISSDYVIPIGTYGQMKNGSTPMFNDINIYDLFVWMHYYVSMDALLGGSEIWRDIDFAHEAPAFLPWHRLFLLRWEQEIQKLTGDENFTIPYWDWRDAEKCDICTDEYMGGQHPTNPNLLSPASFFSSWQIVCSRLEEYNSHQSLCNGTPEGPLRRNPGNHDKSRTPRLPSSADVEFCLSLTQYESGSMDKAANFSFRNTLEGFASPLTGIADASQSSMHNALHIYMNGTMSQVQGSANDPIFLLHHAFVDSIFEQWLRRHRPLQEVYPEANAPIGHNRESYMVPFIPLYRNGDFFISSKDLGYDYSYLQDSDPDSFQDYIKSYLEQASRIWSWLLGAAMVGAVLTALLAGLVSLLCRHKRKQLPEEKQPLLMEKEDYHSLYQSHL
Test: Compound was evaluated for inhibition of tyrosinase enzyme; Not active; call rule not given here
Parameters: species or system mushroom

IC50: Not Active
Structure (SMILES): N[C@@H](Cc1ccccc1)C(=O)O [PHENYLALANINE]
